In patent publication US8283358B2, “N-sulfonamido polycyclic pyrazolyl compounds” (Elan Pharmaceuticals, Inc., priority 2008, dated 2012):

Legend:
[1] = test system: gamma secretase in CHO cells expressing APPSwe, NotchΔE and a Notch responsive luciferase reporter gene (SNC-204B8); assay: SNC dual cell assay for simultaneous assay of A-beta reduction and Notch signaling (Example D); settings: ratio of Notch IC50/Aβ EC50 determined as described in Example D (SNC dual cell assay)
Text: In order to facilitate testing the potency of gamma-secretase inhibitors on two substrates (APP and Notch) simultaneously, a dual-assay using a CHO cell line stably expressing APPSwe, a Notch substrate lacking the ecto-domain, and a Notch responsive Luciferase reporter gene was developed. CHOSwe cells stably over-express the Swedish FAD isoform of APP, and secrete large amounts of Aβ peptide into the conditioned media from endogenous β- and γ-secretase enzyme activity. A Notch intracellular domain (NICD) responsive reporter gene, and the constitutive gamma-secretase Notch substrate, NotchΔE, were stably introduced into CHOSwe cells in a two step process. CHOSwe cells were first stably transfected to express a NICD responsive luciferase reporter gene construct (pGL2-CBF-Luc). […] Stable cell lines expressing rat NotchΔE were then identified in the second step by including a gamma-secretase inhibitor in the selection process (to suppress Notch/NICD toxicity) following transfection of the rat Notch-ΔE construct. […] This vector drives expression of a truncated rat Notch construct corresponding to the c-terminal product following ecto-domain shedding of full length rat Notch protein. The c-terminal product is a constitutive substrate for gamma-secretase cleavage, resulting in release of the cytoplasmic Notch intracellular domain (NICD) product, which translocates to the nucleus and relieves CBF repressed genes. Subsequently, pIRES-ZEDN transfected cells were re-plated at low density in the presence of test compound, and selected with three antibiotics (G418 (0.5 mg/ml)/Hygro (1 mg/ml)/Puro (2.5 mg/ml)). The antibiotic-resistant colonies (named SNC clones for the dual-assay components: APPSwe/NotchΔE/CBF) were isolated and expanded for characterization of Aβ secretion, and NICD responsive reporter gene activity (i.e. luciferase signal in the presence versus absence of test compound). […] A typical dual-assay experiment was performed as follows: Day 1, the SNC cells were plated in 96-well assay plates in inhibitor-free media. Day 2, the cells were fed with fresh media (inhibitor free) and treated with test compounds over a concentration range 0 nM to 40,000 nM (in 10× incremental dilutions) one hour after the media change. The cells were treated with compounds overnight at 37° C. […] For the Notch signaling assay, the cells were lysed and luciferase activity from the lysate was measured using the Promega kit (see below). Day 4, Aβ-ELISA part II was conducted using 3D6-biotin/AP-streptavidin antibodies.

[2] = target: T1, gamma-secretase (partially purified extract of IMR-32 cell membranes; substrate MBP-C125 Swe fusion protein, cleavage at the Aβ40 site) (Homo sapiens, UniProt P49768); assay: Gamma-secretase APP enzyme assay (Example A); type: biochemical; settings: class symbols; assay described in Example A; read-out: γAPP IC50
T1 construct: a partially purified extract of IMR-32 cell membranes as the gamma-secretase enzyme preparation; endogenous in cells; host or cells: IMR-32 cell membranes, partially purified extract
Outline: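 IMR-32 membrane extract, solubilised in BigCHAPS with brain lipid (0.53 mg/ml) in Hepes/NaCl, preincubated 30 min at 37° C with inhibitor; MBP-C125 Swe substrate then added, 2 h at 37° C, SDS-quenched. Aβ40 neo-epitope product measured by sandwich ELISA against six-point standard curve.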

`O=S(=O)(c1ccc(C(F)(F)F)cc1)N1C2Cc3[nH]ncc3C1CC(c1cccc(-n3cccn3)c1)C2` (racemic) [(±)-6-[3-(1H-pyrazol-1-yl)phenyl]-10-{[4-(trifluoromethyl)phenyl]sulfonyl}-4,5,6,7,8,9-hexahydro-1H-4,8-epiminocycloocta[c]pyrazole] was tested, and the “Selectivity Ratio (Notch IC50/Aβ ED50)” value [1] was “(+) ((+) means a ratio from about 50 to about 99)”.

In the case of `O=S(=O)(c1ccc(C(F)(F)F)cc1)N1C2Cc3[nH]ncc3C1CC(c1csnn1)C2` (racemic) [(±)-6-(1,2,3-thiadiazol-4-yl)-10-{[4-(trifluoromethyl)phenyl]sulfonyl}-4,5,6,7,8,9-hexahydro-1H-4,8-epiminocycloocta[c]pyrazole], the “Selectivity Ratio (Notch IC50/Aβ ED50)” value [1] is reported as “(^++)”.

`O=S(=O)(c1ccc(C(F)(F)F)cc1)N1C2Cc3[nH]ncc3C1CC(c1cccc(Br)c1)C2` (racemic) [(±)-6-(3-bromophenyl)-10-{[4-(trifluoromethyl)phenyl]sulfonyl}-4,5,6,7,8,9-hexahydro-1H-4,8-epiminocycloocta[c]pyrazole] was tested, and the “Selectivity Ratio (Notch IC50/Aβ ED50)” value [1] was “(+) ((+) means a ratio from about 50 to about 99)”.

In the case of `O=S(=O)(c1ccc(C(F)(F)F)nc1)N1C2Cc3[nH]ncc3C1CC(c1ccc(F)cc1)C2` (racemic) [(±)-endo-6-(4-fluorophenyl)-10-{[6-(trifluoromethyl)pyridin-] [(±)-endo-6-(4-fluorophenyl)-10-{[6-(trifluoromethyl)pyridin-3-yl]sulfonyl}-4,5,6,7,8,9-hexahydro-1H-4,8-epiminocycloocta[c]pyrazole], the “Selectivity Ratio (Notch IC50/Aβ ED50)” value [1] is reported as “(++) ((++) means a ratio from about 100 to about 149)”.

For `O=S(=O)(c1ccc(C(F)(F)F)nc1)N1C2Cc3[nH]ncc3C1CC(c1nc(C(F)(F)F)cs1)C2` (racemic) [(±)-10-{[6-(trifluoromethyl)pyridin-3-yl]sulfonyl}-6-[4-(trifluoromethyl)-1,3-thiazol-2-yl]-4,5,6,7,8,9-hexahydro-1H-4,8-epiminocycloocta[c]pyrazole], the “Selectivity Ratio (Notch IC50/Aβ ED50)” value [1] was “(+++) ((+++) means a ratio from about 150 to about 199)”.

`O=S(=O)(c1ccc(C(F)(F)F)nc1)N1C2Cc3[nH]ncc3C1c1cc(Br)ccc12` (single isomer, unassigned; (-)) [(−)-6-bromo-11-{[6-(trifluoromethyl)pyridin-3-yl]sulfonyl}-1,4,9,10-tetrahydro-4,9-epiminobenzo[4,5]cyclohepta[1,2-c]pyrazole] was tested, and the “Selectivity Ratio (Notch IC50/Aβ ED50)” value [1] was “(+) ((+) means a ratio from about 50 to about 99)”.

For `Cc1cc(C2CC3Cc4[nH]ncc4C(C2)N3S(=O)(=O)c2ccc(Cl)cc2)on1` (racemic) [(±)-10-[(4-chlorophenyl)sulfonyl]-6-(3-methylisoxazol-5-yl)-4,5,6,7,8,9-hexahydro-1H-4,8-epiminocycloocta[c]pyrazole], the “Selectivity Ratio (Notch IC50/Aβ ED50)” value [1] was “(++++) ((++++) means a ratio of Notch IC50/Aβ EC50 (determined as described in Example D) of >200)”.

In the case of `Cc1noc(C2CC3Cc4[nH]ncc4C(C2)N3S(=O)(=O)c2ccc(Cl)cc2)n1` (racemic) [(±)-10-[(4-chlorophenyl)sulfonyl]-6-(3-methyl-1,2,4-oxadiazol-5-yl)-4,5,6,7,8,9-hexahydro-1H-4,8-epiminocycloocta[c]pyrazole], the “Selectivity Ratio (Notch IC50/Aβ ED50)” value [1] is reported as “(++++) ((++++) means a ratio of Notch IC50/Aβ EC50 (determined as described in Example D) of >200)”.

In the case of `O=S(=O)(c1ccc(C(F)(F)F)cc1)N1C2c3ccccc3C1C(O)c1[nH]ncc12` (single isomer, unassigned; (+)) [(+)-endo-11-{[4-(trifloromethyl)phenyl]sulfonyl}-1,4,9,10-tetrahydro-4,9-epiminobenzo[4,5]cyclohepta[1,2-c]pyrazol-10-ol], the “Selectivity Ratio (Notch IC50/Aβ ED50)” value [1] is reported as “(+++) ((+++) means a ratio from about 150 to about 199)”.

`O=S(=O)(c1ccc(C(F)(F)F)nc1)N1C2Cc3[nH]ncc3C1c1ncc(F)cc12` (racemic) [(±)-7-fluoro-11-{[6-(trifluoromethyl)pyridin-3-yl]sulfonyl}-1,4,9,10-tetrahydro-4,9-epiminopyrazolo[3′,4′: 5,6]cyclohepta[1,2-b]pyridine] was tested, and the “Selectivity Ratio (Notch IC50/Aβ ED50)” value [1] was “(+) ((+) means a ratio from about 50 to about 99)”.

In the case of `O=S(=O)(c1ccc(C(F)(F)F)nc1)N1C2Cc3[nH]ncc3C1CC(c1ccc(F)cc1)C2` (racemic) [(±)-exo-6-(4-fluorophenyl)-10-{[6-(trifluoromethyl)pyridin-3] [(±)-exo-6-(4-fluorophenyl)-10-{[6-(trifluoromethyl)pyridin-3-yl]sulfonyl}-4,5,6,7,8,9-hexahydro-1H-4,8-epiminocycloocta[c]pyrazole], the “Selectivity Ratio (Notch IC50/Aβ ED50)” value [1] is reported as “(+++) ((+++) means a ratio from about 150 to about 199)”.

With `O=S(=O)(c1ccc(C(F)(F)F)nc1)N1C2Cc3[nH]ncc3C1CC(c1ccc3c(c1)OCO3)C2` (racemic) [(±)-6-(1,3-benzodioxol-5-yl)-10-{[6-(trifluoromethyl)pyridin-3-yl]sulfonyl}-4,5,6,7,8,9-hexahydro-1H-4,8-epiminocycloocta[c]pyrazole] the “Selectivity Ratio (Notch IC50/Aβ ED50)” value [1] was “(+) ((+) means a ratio from about 50 to about 99)”.

In the case of `O=C1c2[nH]ncc2C2c3c(F)cccc3C1N2S(=O)(=O)c1ccc(C(F)(F)F)nc1` (single isomer, unassigned; (-)) [(−)-5-fluoro-11-{[6-(trifluoromethyl)pyridin-3-yl]sulfonyl}-4,9-dihydro-4,9-epiminobenzo[4,5]cyclohepta[1,2-c]pyrazol-10(1H)-one], the “Selectivity Ratio (Notch IC50/Aβ ED50)” value [1] is reported as “(++++) ((++++) means a ratio of Notch IC50/Aβ EC50 (determined as described in Example D) of >200)”.

With `O=C1c2[nH]ncc2C2c3cccc(F)c3C1N2S(=O)(=O)c1ccc(C(F)(F)F)nc1` (single isomer, unassigned; (-)) [(−)-8-fluoro-11-{[6-(trifluoromethyl)pyridin-3-yl]sulfonyl}-4,9-dihydro-4,9-epiminobenzo[4,5]cyclohepta[1,2-c]pyrazol-10(1H)-one] the “Selectivity Ratio (Notch IC50/Aβ ED50)” value [1] was “(++++) ((++++) means a ratio of Notch IC50/Aβ EC50 (determined as described in Example D) of >200)”.

`O=S(=O)(c1ccc(C(F)(F)F)cc1)N1C2c3cn[nH]c3C(F)C1c1cccc(F)c12` (single isomer, unassigned; (+)) [(+)-5,10-difluoro-11-{[4-(trifluoromethyl)phenyl]sulfonyl}-1,4,9,10-tetrahydro-4,9-epiminobenzo[4,5]cyclohepta[1,2-c]pyrazole] was tested, and the “Selectivity Ratio (Notch IC50/Aβ ED50)” value [1] was “(++) ((++) means a ratio from about 100 to about 149)”.

For `O=S(=O)(c1ccc(C(F)(F)F)cc1)N1C2Cc3[nH]ncc3C1c1cccc(-c3cccc(C(F)(F)F)c3)c1C2` (racemic) [(±)-7-[3-(trifluoromethyl)phenyl]-12-{[4-(trifluoromethyl)phenyl]sulfonyl}-4,5,6,11-tetrahydro-3H-5,11-epiminobenzo[4,5]cycloocta[1,2-c]pyrazole], the “Selectivity Ratio (Notch IC50/Aβ ED50)” value [1] was “(++) ((++) means a ratio from about 100 to about 149)”.

For `O=S(=O)(c1ccc(C(F)(F)F)nc1)N1C2Cc3[nH]ncc3C1c1cc(-c3ccc(F)cc3)ccc12` (single isomer, unassigned) [compound 245], the IC50 [2] was 100 to 499 nM.

`O=S(=O)(c1ccc(C(F)(F)F)nc1)N1C2Cc3n[nH]cc3C1c1c(F)ccc(F)c12` (centres unmarked) [compound 150] gave an IC50 [2] of under 100 nM.

With `O=S(=O)(c1ccc(C(F)(F)F)nc1)N1C2c3cc(F)c(F)cc3C1C(F)(F)c1[nH]ncc12` (racemic) [compound 157] the IC50 [2] was under 100 nM.

Work on `O=S(=O)(c1ccc(C(F)(F)F)nc1)N1C2Cc3n[nH]cc3C1c1c(F)ccc(F)c12` (centres unmarked) [compound 149] yielded an IC50 [2] of 100 to 499 nM.
